The values that follow come from patent publication US12697277B2, “Materials and methods for mitigating the presence of nitrosamines in packaging using an active agent” (CSP TECHNOLOGIES, INC., priority 2024, dated 2026).

Series [1] can be described thus: Effect of active agent (sachet or film) on nitrite in GC vial headspace, cyclohexene derivative method. It counts as physicochemical. Particulars: 50 mg active in sachet hanging in GC vial headspace over sulfuric acid + potassium nitrite; 24 hours at 60° C. The method, then: A 1 inch×0.5 inch tea bag sachet containing 50 mg±2 mg of a potential active agent, or a 1 cm^2 film was placed hanging in a GC vial headspace. […] 1 mL of 1M sulfuric acid solution and 1 mL of potassium nitrite solution (1 g/10 mL) was placed into the GC vial. The film or sachet was placed suspended inside the GC vial, and sealed, and aged for 24 hours at 60° C. GC-MS was conducted on the headspace using the derivative method. The methodology is based on a chemically derivative method that reacts all available NOx or nitrite directly into a measurable compound (cyclohexene) using acidified sodium cyclamate. The reaction is shown below:
It will be understood that both the nitrite anion (NO2^−) and […] (HNO2), with the relative amounts being determined by solution pH, will be quantified by this method, and gaseous NOx can also be quantified, due to its equilibrium with aqueous phase species. For simplicity, results of this test may be described as measuring the amount of nitrite.

Series [2] can be described thus: Film and sachet comparison in monolayer bottles: nitrite. It counts as physicochemical. Particulars: raw active in sachet in monolayer bottle; 60° C., 40% RH, 6 days. The method, then: For raw active samples, the appropriate mass was weighed as shown in Table 20 and was placed in a sachet which was closed. Films were cut to 120 mm×65 mm. Film thickness was from about 0.3 mm to about 1.2 mm.
A 20 mL scintillation vial was placed in each bottle. 3.5 mL of potassium nitrite and 3.5 mL of sulfuric acid were added to the scintillation vial. GC-MS was conducted on the headspace using the cyclohexene derivative method for nitrite. Samples were aged at 60° C. and 40% RH for 6 days.

Series [3] can be described thus: NO adsorption by raw active and film, fixed bed reactor. It is filed as physicochemical. As to conditions: raw active, 250 mg, 22° C. The method, then: (§1) NO and NO2 adsorption experiments were conducted within a fixed bed reactor at 22° C. In each experimental run, 250 mg of the sample was meticulously deposited onto a fused silica frit positioned within a vertical quartz reactor, which boasted an internal diameter of 6 mm. Prior to each experiment, the system underwent a thorough purge using nitrogen (N) to eliminate any residual gases and ensure a clean starting point. Following the purge, calibration procedures were meticulously carried out to guarantee the accuracy of the concentration measurements. This involved precisely calibrating the ROSEMOUNT NGA 2000 detector to establish a reliable baseline for the subsequent experiments. […] Throughout the experiments, the concentrations of outlet gases, namely NO and NO2, were continuously monitored. This real-time analysis was facilitated by the highly sensitive ROSEMOUNT NGA 2000 detector (St. Louis, MO, USA). To account for any background signals or potential interferences, a blank experiment was conducted using an empty reactor. The obtained results from this blank experiment were subtracted from the measurements of the sample, ensuring that the recorded concentrations accurately reflected the adsorption behavior of NO2 by the sample. This meticulous approach enhances the reliability and precision of the experimental findings.

Series [4] in a line: NO2 adsorption by raw active and film, fixed bed reactor. It is filed as physicochemical. As to conditions: raw active, 250 mg, 22° C.; for NO2 Adsorbed Amount: 505 ppm of NO2. The method, then: as §1
The conditions of series [5]: FDA acceptable intake limit; cited from earlier work.
Series [6] can be described thus: Raw active and film studies with propranolol: Nitroso-propranolol (NPO) by LC-MS. It is filed as physicochemical. As to conditions: raw active 5 g in pouch in 250 ml bottle with 1 g propranolol; 50° C./75% RH, 4 weeks. The protocol:
Raw active or film with active were tested in 250 ml bottles with 1 g of propranolol (beads), to measure formation of Nitroso-propranolol (NPO). When present, the film (2 pieces of A2×2 inches) was wrapped inside bottle(s). Raw active (5 g) was placed in a pouch inside bottle(s).
Humidity was provided by vials containing a salt solution: ASAPprime™ vials (FreeThink Technologies, Branford CT, USA). A screw cap was used, with no induction seal.
NPO was directly measured by LC-MS (liquid chromatography-mass spectroscopy). The detection limit is approximately 1% of the results reported.

For series [7] the following is noted: acceptable intake of the nitrosamine per day; cited from earlier work.
The nature of series [8]: Maximum daily dose (MDD) and acceptable intake (AI) for each nitrosamine formed by each drug.
Series [9] can be described thus: Effect of raw active on nitrite, headspace GC (modified FDA protocol). It is filed as physicochemical. Particulars: raw active 50 mg in GC vial with sulfuric acid + potassium nitrite, 24 hours at 60° C., estimated ppm of nitrous acid in headspace. The method, then: The active sachet was placed inside the GC vial and sealed and aged for 24 hours at 60° C. Controls only contained the liquid. GC was conducted on the headspace using a modified version of the FDA protocol for GC-MS/MS to detect nitrite. […] Food & Drug Administration (FDA), Apr. 29, 2019, published online.

On to `O=C([O-])O.[Na+]` [Sodium Bicarbonate], for which the “Nitrite (% decrease)” value in series [1] worked out at 57.7%; in series [2], 72.8%. For the same molecule, the “NO Adsorbed Amount” value in series [3] is reported as 0.14 mg/g. The “NO2 Adsorbed Amount” value in series [4] is on record as 2.24 mg/g. The like results for Vitamin E were, in that order, 89.8%, 31.6%, 0.16 mg/g and 4.95 mg/g.

Take `[Cl-].[Cl-].[Mg+2]` [Magnesium Chloride]: in [1], the “Nitrite (% decrease)” value was −15.7%. Consider `CN(CCCC(=O)O)N=O` [NMBA], for which the “AI Limit” value in series [5] is on record as 96 ng/day. Consider `O=S(=O)([O-])[O-].[Ca+2]` [Calcium Sulfate], for which the “Nitrite (% decrease)” value in [1] is 22.2%. On the same count and under the same terms, under `CCCOC(=O)c1cc(O)c(O)c(O)c1` [Propyl Gallate] stands 3.2%.

Regarding `O=C1O[C@H]([C@@H](O)CO)C([O-])=C1O.[Na+]` [Sodium Ascorbate], the “NPO (% Decrease)” value in series [6] is recorded as 9%. For the molecule `O=C([O-])[O-].[Mg+2]` [Magnesium Carbonate], the “Nitrite (% decrease)” value in series [1] was found to be 33.9%. Also, the “NO2 Adsorbed Amount” value in series [4] amounted to 8.03 mg/g. As to `CC(C)=CCC/C(C)=C/C=C/C(C)=C/C=C/C(C)=C/C=C/C=C(C)/C=C/C=C(C)/C=C/C=C(\C)CCC=C(C)C` [Lycopene], the “Nitrite (% decrease)” value in series [1] is on record as 23.7%. Still for that read-out and setting: under `CC1=C(/C=C/C(C)=C/C=C/C(C)=C/C=C/C=C(C)/C=C/C=C(C)/C=C/C2=C(C)C(=O)[C@@H](O)CC2(C)C)C(C)(C)C[C@H](O)C1=O` [Astaxanthin] stands 35.0%. With `COc1cc(/C=C/C(=O)O)ccc1O` [Ferulic Acid], the “Nitrite (% decrease)” value in [1] is 61.7%. Further, the “NO2 Adsorbed Amount” value in [4] was 3.27 mg/g.

On to `CC1=C(/C=C/C(C)=C/C=C/C(C)=C/C=C/C=C(C)/C=C/C=C(C)/C=C/C2=C(C)C[C@@H](O)CC2(C)C)C(C)(C)C[C@H](O)C1` [Zeaxanthin], for which, in [1], the “Nitrite (% decrease)” value was 26.6%. On to `CN(CC(O)c1cccc(O)c1)N=O` (stereo not drawn) [1-nitroso-phenylephrine], for which the AI /day in series [7] was 100 ng. For the same molecule, the “AI (ppm)” value in series [8] (Phenylephrine, MDD 60 mg) was determined as 1.67 ppm. Regarding Sodium Alginate, in [1], the “Nitrite (% decrease)” value came to 27.7%. `Nc1ccc(C(=O)O)cc1` [4-aminobenzonic acid]: the “NPO (% Decrease)” value in [6] is given as 7%.

Consider `O=C1O[C@H]([C@@H](O)CO)C(O)=C1O` [Ascorbic Acid, L-ascorbic acid], for which the “Nitrite (% decrease)” value in [1] was 23.7%; in [2] it was −111.1%. Also, the “Nitrite (ppm)” value in [9] is on record as 0.08 ppm; in series [9] (listed as Ascorbic acid), “most effective raw active at decreasing the level of nitrite”. Further, in [3], the “NO Adsorbed Amount” value was 0.14 mg/g. Besides, the “NO2 Adsorbed Amount” value in [4] was determined as 2.50 mg/g. Moreover, the “NPO (% Decrease)” value in [6] is on record as 9%. In the case of Vitamin A, in [1], the “Nitrite (% decrease)” value is on record as 11.3%. For the molecule `OC[C@H]1O[C@@H]2O[C@H]3[C@H](O)[C@@H](O)[C@@H](O[C@H]4[C@H](O)[C@@H](O)[C@@H](O[C@H]5[C@H](O)[C@@H](O)[C@@H](O[C@H]6[C@H](O)[C@@H](O)[C@@H](O[C@H]7[C@H](O)[C@@H](O)[C@@H](O[C@H]8[C@H](O)[C@@H](O)[C@@H](O[C@H]1[C@H](O)[C@H]2O)O[C@@H]8CO)O[C@@H]7CO)O[C@@H]6CO)O[C@@H]5CO)O[C@@H]4CO)O[C@@H]3CO` [Beta Cyclodextrin Powder, Beta Cyclodextrin], in series [1], the “Nitrite (% decrease)” value is 25.6%. Also, the “NO2 Adsorbed Amount” value in [4] is 2.96 mg/g.

On to `CCN(CC)N=O` [NDEA, N-nitrosodiethylamine], for which, in [5], the “AI Limit” value is 26.5 ng/day. Turning to `CC(C)N(N=O)C(C)C` [NDIPA, N-nitrosodi-2-propylamine], in series [5], the “AI Limit” value was 26.5 ng/day.

In the case of `CCN(N=O)C(C)C` [NIPEA], the “AI Limit” value in series [5] is 26.5 ng/day. With `N[C@@H](CS)C(=O)O` [L-cysteine], in series [6], the “NPO (% Decrease)” value turned out to be 2%.

For `O=NN1CCC(c2ccccc2)CC1` [1-nitroso-4-phenylpiperdine], the “AI (ppm)” value is recorded as 2 ppm in series [8] (4-Phenylpiperdine (CPCA Calculated), MDD (ketophrofen) 200 mg); 0.67 ppm in series [8] (4-Phenylpiperdine (CPCA Calculated), MDD (meperide) 600 mg); 1 ppm in series [8] (4-Phenylpiperdine (CPCA Calculated), MDD (pethidine) 400 mg). The “average AI” value in [8] (average of the three MDD-based values) came out at 1.2 ppm. For `O=C(O)/C=C/c1ccc(O)c(O)c1` [Caffeic Acid], the “Nitrite (% decrease)” value in series [1] came out at 31.6%. For the molecule `CN(C)N=O` [NDMA, N-nitrosodimethylamine], the AI /day in series [7] was 96 ng. In series [5], the “AI Limit” value is listed as 96 ng/day. Also, the “AI (ppm)” value in series [8] (Ranitidine, MDD 320 mg) is 0.3 ppm.

On to `O=C([O-])[O-].[Ca+2]` [Calcium Carbonate], for which the “Nitrite (% decrease)” value in series [1] was 46.9%. The “NO Adsorbed Amount” value in [3] is recorded as 0.15 mg/g. Also, the “NO2 Adsorbed Amount” value in series [4] is 7.75 mg/g. In addition, the “NO2 Adsorbed Amount (mg/g)” value in series [4] (505 ppm of NO2, listed as calcium carbonate) is recorded as “most effective NO2 adsorber from amongst the raw actives tested”. For the molecule `Cl` [Hydrochloric Acid], in series [1], the “Nitrite (% decrease)” value stood at 14.4%. On the same count and under the same terms, to `COC1=C(OC)C(=O)C(C/C=C(\C)CC/C=C(\C)CC/C=C(\C)CC/C=C(\C)CC/C=C(\C)CC/C=C(\C)CC/C=C(\C)CC/C=C(\C)CC/C=C(\C)CCC=C(C)C)=C(C)C1=O` [Coenzyme Q10] belongs −7.8%. As for `[Cl-].[Na+]` [Sodium Chloride], the “Nitrite (% decrease)” value worked out at 86.8% in series [1] and 99.9% in series [2]. Further, in series [3], the “NO Adsorbed Amount” value is recorded as 0.34 mg/g. Further, the “NO2 Adsorbed Amount” value in [4] is listed as 2.00 mg/g. For `[O]=[Fe][O][Fe]=[O]` [Ferric Oxide], in series [1], the “Nitrite (% decrease)” value is 14.3%.
